Measured values: patent publication US9394303B2, “Small molecule inhibitors of MCL-1 and uses thereof” (priority 2014, dated 2016)
Entries after “also recorded” stand apart in the source; their conditions may differ. Like-named read-outs stand apart in the source and are kept apart here.

Legend:
[1] = biological target: T1, Mcl-1 (Homo sapiens (Human), UniProt Q07820); details: for did not bind to Mcl-1 up to: highest concentration tested
[2] = biological target: Bcl-2 (Homo sapiens, UniProt P10415); test: Fluorescence polarization-based competitive binding assay (FAM-BID tracer)
Bcl-2, sequence (P10415 whole entry, looked up): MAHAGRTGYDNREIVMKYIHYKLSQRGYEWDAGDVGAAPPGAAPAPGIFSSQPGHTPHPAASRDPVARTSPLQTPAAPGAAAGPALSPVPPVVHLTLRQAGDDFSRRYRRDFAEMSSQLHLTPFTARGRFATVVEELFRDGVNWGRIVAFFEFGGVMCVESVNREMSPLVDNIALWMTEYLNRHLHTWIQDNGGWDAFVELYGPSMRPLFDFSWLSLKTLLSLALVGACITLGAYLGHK

[3] = biological target: Bcl-xL (Homo sapiens (Human), UniProt Q07817, DEL45-85); test: as above; details: for Ki: Table 2, tested up to 20 μM, read-out: Bcl-XL Ki ± SD
Bcl-xL, sequence (Q07817 with tags, fused parts or gaps DEL45-85): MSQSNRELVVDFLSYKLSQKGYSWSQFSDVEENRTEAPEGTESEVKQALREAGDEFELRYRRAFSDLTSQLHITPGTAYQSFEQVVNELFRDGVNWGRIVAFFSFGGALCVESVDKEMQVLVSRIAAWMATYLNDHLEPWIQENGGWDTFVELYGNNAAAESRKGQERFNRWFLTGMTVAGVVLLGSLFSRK

[4] = biological target: T1, Mcl-1; details: cited from earlier work
[5] = system: Eμ-myc lymphomas overexpressing Mcl-1; test: Eμ-myc lymphoma cell killing; format: cell-based, mice; details: FIG. 9
Description: (§1) The specificity and selectivity of this class Mcl-1 inhibitors was further confirmed by using cell lines developed by retroviral transduction of lymphoma cells isolated from Eμ-myc transgenic mice which survival depends on the expression of individual prosurvival protein (see, e.g., Whitecross K F, Alsop A E, Cluse L A, Wiegmans A, Banks K M, et al. 2009. […].

[6] = system: Eμ-myc lymphoma cells overexpressing Bcl-2; test: Eμ-myc lymphoma cell killing; format: cell-based, mice; details: FIG. 9
Description: as §1

[7] = system: Eμ-myc lymphoma cells overexpressing Bcl-xL; test: Eμ-myc lymphoma cell killing; format: cell-based, mice; details: FIG. 9
Description: as §1

[8] = read-out: Bcl-2 Ki ± SD; Table 2; tested up to 20 μM
[9] = Table 2; tested up to 20 μM; read-out: Bcl-2 Ki ± SD

With `Cc1cc(C(=O)O)c2c(C)nn(C)c2n1` [Compound 5, 1,3,6-Trimethyl-1H-pyrazolo[3,4-b]pyridine-4-carboxylic acid] the “did not bind to Mcl-1 up to” value [1] was greater than 200 µM.

For `Cc1nn(Cc2ccccc2)c2nc(-c3ccco3)cc(C(=O)O)c12` [Compound 6, 1-Benzyl-6-(furan-2-yl)-3-methyl-1H-pyrazolo[3,4-b]pyridine-4-carboxylic acid], the “change in potency compared to 2” value ([1]; vs compound 2) was “slight increase in potency”.

With `Cc1nn(Cc2ccc(Oc3ccccc3)cc2)c2nc(-c3ccco3)cc(C(=O)O)c12` [Compound 8, 6-(Furan-2-yl)-3-methyl-1-(4-phenoxybenzyl)-1H-pyrazolo[3,4-b]pyridine-4-carboxylic acid] the Ki [2, 8] was greater than 4 µM.

Work on `Cc1nn(Cc2ccc(Oc3ccccc3)cc2)c2nc(/C=C/c3ccccc3)cc(C(=O)O)c12` [Compound 16, (E)-3-methyl-1-(4-phenoxybenzyl)-6-styryl-1H-pyrazolo[3,4-b]pyridine-4-carboxylic acid] yielded a Ki [2, 8] of 3.16 ± 1.03 µM and a Ki [3] of 3.55 ± 0.3 µM.

In the case of `CN(C)CC[C@H](CSc1ccccc1)Nc1ccc(S(=O)(=O)NC(=O)c2ccc(N3CCN(Cc4ccccc4-c4ccc(Cl)cc4)CC3)cc2)cc1[N+](=O)[O-]` [ABT-737], the “binding to Mcl-1” value [4] is listed as “fails to bind”.

In the case of `Cc1nn(C)c2nc(-c3ccco3)cc(C(=O)O)c12` [Compound 3, 6-(Furan-2-yl)-1,3-dimethyl-1H-pyrazolo[3,4-b]pyridine-4-carboxylic acid], the “did not bind to Mcl-1 up to” value [1] is reported as greater than 200 µM.

In the case of `Cc1cc(Oc2ccc(Cn3nc(C)c4c(C(=O)O)cc(-c5ccco5)nc43)cc2)cc(C)c1Cl` [Compound 57], the Ki [2, 9] is reported as 1.95 ± 0.2 µM, the Ki [3] is reported as greater than 5 µM and the “no binding to Bcl-xL up to” value ([3]; highest concentration tested) is reported as greater than 20 µM. The “effect on Eμ-myc lymphoma cells dependent on Mcl-1” value [5] was “led to sensitization; also recorded: selective killing”, the “effect on Eμ-myc lymphoma cells dependent on Bcl-2” value [6] was “did not show effect; also recorded: not affected” and the “effect on Eμ-myc lymphoma cells dependent on Bcl-xL” value [7] was “did not show effect; also recorded: not affected”.

With `CC1(C)CCC(c2ccc(Cl)cc2)=C(CN2CCN(c3ccc(C(=O)NS(=O)(=O)c4ccc(N[C@H](CCN5CCOCC5)CSc5ccccc5)c(S(=O)(=O)C(F)(F)F)c4)cc3)CC2)C1` [ABT-263, reference compound] the “effect on Eμ-myc lymphoma cells dependent on Bcl-2” value [6] was “kills” and the “effect on Eμ-myc lymphoma cells dependent on Bcl-xL” value [7] was “kills”.

`Cc1nn(Cc2ccc(Oc3cccc4ccccc34)cc2)c2nc(-c3ccco3)cc(C(=O)O)c12` [Compound 58] showed a Ki [2, 9] greater than 4 µM and a Ki [3] greater than 5 µM.
